Common to all, as to type: biochemical
The target in one experiment is EGFR (Homo sapiens, UniProt P00533). In words: EGFR kinase activity inhibition, Caliper mobility shift assay. On the procedure:
(§1) EGFR and EGFR (T790M/L858R) protein kinase activities were determined using the Caliper mobility shift assay. The compound was dissolved in DMSO and diluted with kinase buffer (EGFR (T790M/L858R): 50 mM HEPES at pH 7.5, 0.0015% Brij-35, 10 mM MgCl2, 2 mM DTT; EGFR: pH 7.5 50 mM HEPES, 0.0015% Brij-35, 10 mM MgCl2, 10 mM MnCl2, 2 mM DTT), 5 μL of 5 times the final concentration of the compound (10% DMSO) was added to a 384-well plate. Add 10 μL of 2.5-fold enzyme (using EGFR and EGFR (1790M/L858R), respectively) and incubate for 10 minutes at room temperature, then add 10 μL of 2.5-fold substrate (Peptide FAM-P22 and ATP) solution. After incubation at 28° C. for 60 minutes, the reaction was stopped by adding 25 μL of stop solution (100 mM HEPES, 0.015% Brij-35, 0.2% Coating Reagent #3, 50 mM EDTA, pH 7.5). Conversion rate data was read on a Caliper EZ Reader II (Caliper Life Sciences). The conversion rate was converted into inhibition rate data (% inhibition rate=(max−conversion rate)/(max−min)*100). Where max is the conversion of the DMSO control and min is the conversion of the enzyme-free control Curves were plotted with compound concentration and inhibition rate on the horizontal and vertical coordinates, and the curve was fitted using XLFit excel add-in version 4.3.1 software and IC50 was calculated.

The target in the next experiment is EGFR (T790M/L858R) (Homo sapiens, UniProt P00533, L858R/T790M). In words: EGFR (T790M/L858R) kinase activity inhibition, Caliper mobility shift assay. On the procedure:
as §1

In another experiment the target is SYK (Homo sapiens, UniProt P43405). In words: Syk kinase activity inhibition, Caliper mobility shift assay. On the procedure:
SYK protein kinase activity was determined using the Caliper mobility shift assay. The compound was dissolved in DMSO and diluted with kinase buffer (20 mM HEPES, 0.01% Triton X-100, 5 mM MgCl2, 1 mM MnCl2, 2 mM DTT), and 5 μL of 5 times final concentration was added to the 384-well plate Compound (10% DMSO). After adding 10 μL of 2.5-fold enzyme (with SYK) solution, incubate for 10 minutes at room temperature, and then add 10 μL of 2.5-fold substrate (Peptide FAM-P22 and ATP) solution. Incubate at 28° C. for 30 minutes, then stop the reaction by adding 25 μL of stop solution (100 mM HEPES, 0.015% Brij-35, 0.2% Coating Reagent #13, 50 mM EDTA, pH 7.5). Conversion rate data was read on a Caliper EZ Reader II (Caliper Life Sciences) The conversion rate was converted into inhibition rate data (% inhibition rate=(max−conversion rate)/(max−min)*100). Where max is the conversion of the DMSO control and min is the conversion of the enzyme-free control. Curves were plotted with compound concentration and inhibition rate on the horizontal and vertical coordinates, and the curve was fitted using XLFit excel add-in version 4.3.1 software and IC50 was calculated.

The target of the next experiment is Jak2 (Homo sapiens, UniProt O60674). In words: Jak2 kinase activity inhibition, Caliper Reader. On the procedure:
Kinase JAk1 and Jak2 enzyme inhibition IC50 evaluation experiments: The buffer was configured with the following components: 50 mM HEPES, pH 7.5, 0.00015% Brij-35. Compounds were placed in a concentration gradient in 100% DMSO and diluted to 10% DMSO with buffer and added to 384 well plates. For example, when the initial concentration of the compound is […], it is made into 12.5 μM with 100% DMSO, and diluted by 5 or 6 concentrations, and then diluted 10-fold with buffer to prepare an intermediate dilution of the compound containing 10% DMSO. Transfer 5 μL, to 384-well plate. The Jak1 and Jak2 enzymes were diluted to the optimal concentration with the following buffer: 50 mM HEPES, pH 7.5, 0.00015% Brij-35, 2 mM DTT. Transfer 10 μL to a 384-well plate and incubate with the compound for 10-15 minutes. The substrate was diluted to the optimal concentration with the following buffer: 50 mM HEPES, pH 7.5, 0.00015% Brij-35, 10 mM MgCl2, adenosine triphosphate at Km. The reaction was initiated by adding 10 μL to a 384-well plate and reacted at 28° C. for 1 hour. The conversion rate was then read using a Caliper Reader and the inhibition rate was calculated. The formula is as follows: Percent inhibition=(max−conversion)/(max−min)*100. Where max is the conversion of the DMSO control and min is the conversion of the enzyme-free control. Fit the IC50 value with XLFit excel add-in version 5.4.0.8. Fitting formula: Y=Bottom+(Top−Bottom)/(1+(IC50/X)^HillSlope).

pIC50: −log10 of the molar value.

EGFR, sequence (P00533 25-1210): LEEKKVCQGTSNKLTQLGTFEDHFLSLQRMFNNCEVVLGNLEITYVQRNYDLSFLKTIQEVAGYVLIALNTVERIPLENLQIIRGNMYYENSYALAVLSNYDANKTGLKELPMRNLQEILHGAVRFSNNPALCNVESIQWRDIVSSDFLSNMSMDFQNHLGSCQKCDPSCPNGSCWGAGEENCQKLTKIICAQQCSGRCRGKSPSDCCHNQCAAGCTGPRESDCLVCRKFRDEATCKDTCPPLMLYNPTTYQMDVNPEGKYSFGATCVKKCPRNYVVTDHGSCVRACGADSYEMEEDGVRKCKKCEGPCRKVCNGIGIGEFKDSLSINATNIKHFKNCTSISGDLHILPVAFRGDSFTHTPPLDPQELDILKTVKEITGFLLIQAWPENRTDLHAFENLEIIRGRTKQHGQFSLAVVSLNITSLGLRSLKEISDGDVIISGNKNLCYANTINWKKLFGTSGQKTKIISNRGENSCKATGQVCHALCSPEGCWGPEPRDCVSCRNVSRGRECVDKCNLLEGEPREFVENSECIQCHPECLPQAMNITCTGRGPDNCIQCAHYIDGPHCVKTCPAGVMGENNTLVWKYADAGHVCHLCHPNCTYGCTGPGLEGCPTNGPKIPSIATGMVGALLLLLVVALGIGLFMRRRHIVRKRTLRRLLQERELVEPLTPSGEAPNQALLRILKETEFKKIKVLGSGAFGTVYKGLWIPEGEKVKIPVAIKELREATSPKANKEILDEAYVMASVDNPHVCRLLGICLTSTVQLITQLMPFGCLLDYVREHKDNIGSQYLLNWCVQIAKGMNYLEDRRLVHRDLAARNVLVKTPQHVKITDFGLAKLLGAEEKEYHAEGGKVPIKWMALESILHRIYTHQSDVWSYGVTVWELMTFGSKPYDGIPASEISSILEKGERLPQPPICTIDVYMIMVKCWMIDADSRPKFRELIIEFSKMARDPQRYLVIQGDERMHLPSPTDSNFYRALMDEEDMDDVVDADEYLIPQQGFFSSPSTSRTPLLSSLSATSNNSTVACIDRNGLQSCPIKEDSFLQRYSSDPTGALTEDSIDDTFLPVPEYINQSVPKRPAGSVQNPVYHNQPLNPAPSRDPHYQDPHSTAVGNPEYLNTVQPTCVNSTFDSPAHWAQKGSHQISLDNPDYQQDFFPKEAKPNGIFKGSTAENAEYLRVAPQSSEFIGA
EGFR (T790M/L858R), sequence (P00533 25-1210 T790M/L858R): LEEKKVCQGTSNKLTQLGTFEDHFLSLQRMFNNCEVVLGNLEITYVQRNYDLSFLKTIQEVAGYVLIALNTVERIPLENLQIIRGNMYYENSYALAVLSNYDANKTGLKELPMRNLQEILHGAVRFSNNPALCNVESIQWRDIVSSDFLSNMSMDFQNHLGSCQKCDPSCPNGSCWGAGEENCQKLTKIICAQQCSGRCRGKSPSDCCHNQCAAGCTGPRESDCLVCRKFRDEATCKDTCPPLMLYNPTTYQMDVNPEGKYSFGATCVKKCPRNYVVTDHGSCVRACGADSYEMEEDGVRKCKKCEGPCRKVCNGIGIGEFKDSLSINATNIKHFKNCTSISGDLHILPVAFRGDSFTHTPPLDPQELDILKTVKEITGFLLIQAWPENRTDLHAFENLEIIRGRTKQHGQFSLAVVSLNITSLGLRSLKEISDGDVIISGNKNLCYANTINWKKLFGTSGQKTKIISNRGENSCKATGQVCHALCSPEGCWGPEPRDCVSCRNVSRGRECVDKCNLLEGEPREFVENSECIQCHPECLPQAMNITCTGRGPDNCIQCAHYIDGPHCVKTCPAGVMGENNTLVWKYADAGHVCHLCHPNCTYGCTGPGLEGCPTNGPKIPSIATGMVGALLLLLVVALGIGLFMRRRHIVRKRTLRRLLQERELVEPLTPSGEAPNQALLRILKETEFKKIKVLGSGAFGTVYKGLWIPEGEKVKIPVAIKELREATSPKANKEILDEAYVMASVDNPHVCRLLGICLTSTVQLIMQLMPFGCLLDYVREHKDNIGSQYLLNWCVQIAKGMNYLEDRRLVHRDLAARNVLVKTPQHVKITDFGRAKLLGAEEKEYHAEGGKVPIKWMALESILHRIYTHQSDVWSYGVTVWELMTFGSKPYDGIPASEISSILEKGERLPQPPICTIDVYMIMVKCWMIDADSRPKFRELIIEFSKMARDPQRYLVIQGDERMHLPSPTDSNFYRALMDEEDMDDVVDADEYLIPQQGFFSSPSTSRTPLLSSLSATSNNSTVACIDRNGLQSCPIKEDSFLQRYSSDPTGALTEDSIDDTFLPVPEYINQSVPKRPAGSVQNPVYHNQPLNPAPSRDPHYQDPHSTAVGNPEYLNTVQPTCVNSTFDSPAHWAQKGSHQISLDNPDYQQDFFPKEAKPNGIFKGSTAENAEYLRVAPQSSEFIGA
Jak2, sequence (O60674 whole entry, species assumed): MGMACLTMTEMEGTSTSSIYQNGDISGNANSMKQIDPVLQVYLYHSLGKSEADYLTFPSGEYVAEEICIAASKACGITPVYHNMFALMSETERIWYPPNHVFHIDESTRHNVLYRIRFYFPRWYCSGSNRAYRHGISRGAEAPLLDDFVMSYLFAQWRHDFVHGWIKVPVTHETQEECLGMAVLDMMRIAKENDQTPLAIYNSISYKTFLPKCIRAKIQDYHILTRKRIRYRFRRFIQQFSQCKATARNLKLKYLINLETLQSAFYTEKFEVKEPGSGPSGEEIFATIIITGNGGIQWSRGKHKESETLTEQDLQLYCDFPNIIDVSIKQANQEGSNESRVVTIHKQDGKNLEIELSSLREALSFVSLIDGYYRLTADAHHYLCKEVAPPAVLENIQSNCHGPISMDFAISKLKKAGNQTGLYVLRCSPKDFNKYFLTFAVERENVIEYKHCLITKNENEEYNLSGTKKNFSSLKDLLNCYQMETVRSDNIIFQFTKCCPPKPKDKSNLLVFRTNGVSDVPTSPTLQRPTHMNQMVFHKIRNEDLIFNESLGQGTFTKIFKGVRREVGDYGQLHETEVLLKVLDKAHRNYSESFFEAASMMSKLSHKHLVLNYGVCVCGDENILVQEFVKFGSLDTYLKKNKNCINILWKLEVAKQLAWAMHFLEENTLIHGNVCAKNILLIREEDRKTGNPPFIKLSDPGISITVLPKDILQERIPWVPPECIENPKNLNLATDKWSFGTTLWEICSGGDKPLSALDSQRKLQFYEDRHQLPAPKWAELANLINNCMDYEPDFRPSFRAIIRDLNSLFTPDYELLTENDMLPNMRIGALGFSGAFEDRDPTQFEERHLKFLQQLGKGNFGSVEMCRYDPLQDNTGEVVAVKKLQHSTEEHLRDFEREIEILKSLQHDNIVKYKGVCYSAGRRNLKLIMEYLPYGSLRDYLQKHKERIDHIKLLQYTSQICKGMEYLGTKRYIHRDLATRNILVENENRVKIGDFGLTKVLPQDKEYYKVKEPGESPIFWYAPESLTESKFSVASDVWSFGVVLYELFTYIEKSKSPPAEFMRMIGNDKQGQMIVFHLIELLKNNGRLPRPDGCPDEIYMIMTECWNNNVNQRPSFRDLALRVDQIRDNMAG

As usually defined, the pIC50 is the negative decadic logarithm of the IC50, by convention in mol/L. On to `C=CC(=O)Nc1cccc(Nc2nc(Nc3ccc4c(c3)OC[C@H]3CN(C)CCN43)ncc2C(F)(F)F)c1` [Compound A1R], for which the results for the pIC50 on EGFR and on EGFR (T790M/L858R) were more than 7.00 and more than 9.00, respectively.
The matching figures for `C=CC(=O)Nc1cccc(Nc2nc(Nc3ccc4c(c3)OC[C@@H]3CN(C)CCN43)ncc2C(F)(F)F)c1` [Compound A1S]: more than 7.00 and more than 9.00.
On to `C=CC(=O)Nc1cccc(Nc2nc(Nc3ccc4c(c3)OCC3CN(C)CCN43)ncc2C(F)(F)F)c1` (stereo not drawn) [Compound A1], for which the pIC50 is more than 7.00 at EGFR and more than 8.00 at EGFR (T790M/L858R).
The matching figures for `C=CC(=O)Nc1cccc(Nc2nc(Nc3ccc4c(c3)OC[C@H]3CN(C(C)=O)CCN43)ncc2C(F)(F)F)c1` [Compound A2R]: more than 7.00 and more than 8.00.
The matching figures for `C=CC(=O)Nc1cccc(Nc2nc(Nc3ccc4c(c3)OC[C@@H]3CN(C(C)=O)CCN43)ncc2C(F)(F)F)c1` [Compound A2S]: more than 7.00 and more than 8.00.
The matching figures for `C=CC(=O)Nc1cccc(Nc2nc(Nc3ccc4c(c3)OC[C@H]3CNCCN43)ncc2C(F)(F)F)c1` [Compound A3R]: more than 7.30 and more than 9.00.
With `C=CC(=O)Nc1cccc(Nc2nc(Nc3ccc4c(c3)OC[C@@H]3CNCCN43)ncc2C(F)(F)F)c1` [Compound A3S], at EGFR (T790M/L858R), the pIC50 is more than 9.00.
For `C=CC(=O)Nc1cccc(Nc2nc(Nc3ccc4c(c3)OC[C@H]3CN(C(=O)C(F)(F)F)CCN43)ncc2C(F)(F)F)c1` [Compound A4R], the results for the pIC50 at EGFR and on EGFR (T790M/L858R) were more than 7.00 and more than 8.00, respectively.
The corresponding values for `C=CC(=O)Nc1cccc(Nc2nc(Nc3ccc4c(c3)OC[C@H]3CN(CC)CCN43)ncc2C(F)(F)F)c1` [Compound A5R] are more than 7.00 and more than 9.00.
The corresponding values for `C=CC(=O)Nc1cccc(Nc2nc(Nc3ccc4c(c3)OC[C@H]3CN(C5CC5)CCN43)ncc2C(F)(F)F)c1` [Compound A6R] are more than 7.00 and more than 8.00.
The matching figures for `C=CC(=O)Nc1cccc(Nc2nc(Nc3ccc4c(c3)OC[C@H]3CN(CC(F)(F)F)CCN43)ncc2C(F)(F)F)c1` [Compound A7R]: more than 6.30 and more than 7.30.
`C=CC(=O)Nc1cccc(Nc2nc(Nc3ccc4c(c3)OC[C@H]3COCCN43)ncc2C(F)(F)F)c1` [Compound A8R]: the pIC50 was more than 7.00 at EGFR and more than 8.00 at EGFR (T790M/L858R).
The corresponding values for `C=CC(=O)Nc1cccc(Nc2nc(Nc3ccc4c(c3)OC[C@@H]3COCCN43)ncc2C(F)(F)F)c1` [Compound A8S] are more than 7.00 and more than 8.00.
The matching figures for `C=CC(=O)Nc1cccc(Nc2nc(Nc3ccc4c(c3)OC[C@H]3CN(C)CC(=O)N43)ncc2C(F)(F)F)c1` [Compound A9R]: more than 7.00 and more than 8.00.
The corresponding values for `C=CC(=O)Nc1cccc(Nc2nc(Nc3ccc4c(c3)OC[C@@H]3CN(C)CC(=O)N43)ncc2C(F)(F)F)c1` [Compound A9S] are more than 7.00 and more than 8.00.
Regarding `CC(C)(C)OC(=O)N1CCN2c3ccc(Nc4ncc(C(N)=O)c(NC5CC5)n4)cc3OC[C@H]2C1` [Compound C7R], the pIC50 on SYK and at Jak2 was more than 7.30 in each case.
On to `NC(=O)c1cnc(Nc2ccc3c(c2)OC[C@H]2CNCCN32)nc1NC1CC1` [Compound C8R], for which the pIC50 on SYK was more than 7.30; on Jak2, more than 8.00.
The matching figures for `NC(=O)c1cnc(Nc2ccc3c(c2)OC[C@H]2CN(S(=O)(=O)c4ccccc4)CCN32)nc1NC1CC1` [Compound C9R]: more than 8.00 and more than 7.30.
Turning to `CS(=O)(=O)N1CCN2c3ccc(Nc4ncc(C(N)=O)c(NC5CC5)n4)cc3OC[C@H]2C1` [Compound C11R], the pIC50 on SYK and at Jak2 was more than 8.00 each time.
Regarding `CC(C)S(=O)(=O)N1CCN2c3ccc(Nc4ncc(C(N)=O)c(NC5CC5)n4)cc3OC[C@H]2C1` [Compound C12R], the pIC50 on SYK and against Jak2 was more than 8.00 each time.
`NC(=O)c1cnc(Nc2ccc3c(c2)OC[C@H]2CN(S(=O)(=O)C4CCOCC4)CCN32)nc1NC1CC1` [Compound C13R]: the pIC50 at SYK and against Jak2 was more than 8.00 throughout.
Take `CN(C)S(=O)(=O)N1CCN2c3ccc(Nc4ncc(C(N)=O)c(NC5CC5)n4)cc3OC[C@H]2C1` [Compound C14R]: the pIC50 on SYK and against Jak2 was more than 8.00 throughout.
Turning to `C=CS(=O)(=O)N1CCN2c3ccc(Nc4ncc(C(N)=O)c(NC5CC5)n4)cc3OC[C@H]2C1` [Compound C15R], the negative logarithm of the IC50 (pIC50) at SYK and on Jak2 was more than 7.30 throughout.
As to `NC(=O)c1cnc(Nc2ccc3c(c2)OC[C@H]2CN(S(N)(=O)=O)CCN32)nc1NC1CC1` [Compound C16R], the pIC50 at SYK and against Jak2 was more than 7.30 each time.
For the compound `CN1CCN2c3ccc(Nc4ncc(C(N)=O)c(NC5CC5)n4)cc3C(=O)CC2C1` (stereo not drawn) [Compound C17], the pIC50 at SYK and against Jak2 was more than 7.30 throughout.
Turning to `NC(=O)c1cnc(Nc2ccc3c(c2)OCC2COCCN32)nc1NC1CC1` (stereo not drawn) [Compound C18R], the pIC50 at SYK and against Jak2 was more than 7.30 throughout.
